Measurements from article PMC6445163, “Design, synthesis, and evaluation of novel 2-phenylpropionic acid derivatives as dual COX inhibitory-antibacterial agents” (Journal of Enzyme Inhibition and Medicinal Chemistry, 2017).
Converted amounts (≈) assume the structure as drawn.

Key:
[1] = system: Escherichia coli (ATCC 25922); assay: broth microdilution MIC (CLSI M07-A9), resazurin; format: cell-based; conditions: ATCC25922, 24 h, read-out: MIC Ec-2
Description: (§1) Microbiological studies were performed according to following guides: CLSI reference […]-A9 broth microdilution method[49] for bacterial strains and EUCAST definitive (EDef 7.1) method[50] for Candida species. Synthesized compounds were tested for their in vitro growth inhibitory activity against Staphylococcus aureus (ATCC 25923), Enterococcus faecalis (ATCC 29212), Listeria monocytogenes (ATCC 1911), Klebsiella pneumoniae (NCTC 9633), Escherichia coli (ATCC 35218), E. coli (ATCC 25922) Candida albicans (ATCC 24433) Candida krusei (ATCC 6258) and Candida parapsilosis (ATCC 22019). Chloramphenicol and ketoconazole were used as control drugs. The cultures were obtained from the Mueller-Hinton broth (Difco) for the bacterial strains after overnight incubation at 37 °C. The yeasts were maintained in Roswell Park Memorial Institute (RPMI) after overnight incubation at 37 °C. […] Testing was carried out in Mueller-Hinton broth and RPMI at pH =7, and the two-fold serial dilutions technique was applied. The last well on the microplates containing only inoculated broth was kept as controls and the last well with no growth of microorganism was recorded to represent the minimum inhibitory concentration (MIC) expressed in μg/mL. For both the antibacterial and antifungal assays, the compounds were dissolved in DMSO. […] The completed plates were incubated for 24 h. At the end of the incubation, resazurin (20 μg/mL) was added into each well and plates were incubated for 2 h. MIC values were determined using a microplate reader at […]. Synthesized compounds (6a-6m) were evaluated for antimicrobial activity against various microorganisms such as Staphylococcus aureus (ATCC 25923), Enterococcus faecalis (ATCC 29212), Listeria monocytogenes (ATCC 1911), Klebsiella pneumoniae (NCTC 9633), Escherichia coli (ATCC 35218), E. coli (ATCC 25922)Candida albicans (ATCC 24433) Candida krusei (ATCC 6258) and Candida parapsilosis (ATCC 22019). […] Chloramphenicol and ketoconazole were used as standard drugs in the activity test. […] Besides, the compounds 6d, 6h, 6l and 6m indicated stronger antibacterial activity than the other compounds in the series.

[2] = system: Staphylococcus aureus (ATCC 25923); assay: broth microdilution MIC (CLSI M07-A9), resazurin; format: cell-based; conditions: ATCC25923, 24 h
Description: as §1

[3] = system: Escherichia coli (ATCC 35218); assay: broth microdilution MIC (CLSI M07-A9), resazurin; format: cell-based; conditions: for MIC: ATCC35218, 24 h, read-out: MIC Ec-1
Description: as §1

[4] = system: Klebsiella pneumoniae (NCTC 9633); assay: broth microdilution MIC (CLSI M07-A9), resazurin; format: cell-based; conditions: 24 h
Description: as §1

[5] = system: Enterococcus faecalis (ATCC 29212); assay: broth microdilution MIC (CLSI M07-A9), resazurin; format: cell-based; conditions: ATCC29212, 24 h
Description: as §1

[6] = system: Listeria monocytogenes (ATCC 1911); assay: broth microdilution MIC (CLSI M07-A9), resazurin; format: cell-based; conditions: ATCC1911, 24 h
Description: as §1

COX-1 = target: T1, COX-1 (Ovis aries, UniProt P05979); assay: fluorometric COX-1 inhibitor screening kit assay; format: biochemical; conditions: for SI (selectivity index): IC50 (COX-1)/IC50 (COX-2); for IC50: fluorometric kit, 25 °C; for Selectivity: isoform preferred according to SI
T1 construct: purchased Biovision K548-100
T1 sequence (P05979 25-600): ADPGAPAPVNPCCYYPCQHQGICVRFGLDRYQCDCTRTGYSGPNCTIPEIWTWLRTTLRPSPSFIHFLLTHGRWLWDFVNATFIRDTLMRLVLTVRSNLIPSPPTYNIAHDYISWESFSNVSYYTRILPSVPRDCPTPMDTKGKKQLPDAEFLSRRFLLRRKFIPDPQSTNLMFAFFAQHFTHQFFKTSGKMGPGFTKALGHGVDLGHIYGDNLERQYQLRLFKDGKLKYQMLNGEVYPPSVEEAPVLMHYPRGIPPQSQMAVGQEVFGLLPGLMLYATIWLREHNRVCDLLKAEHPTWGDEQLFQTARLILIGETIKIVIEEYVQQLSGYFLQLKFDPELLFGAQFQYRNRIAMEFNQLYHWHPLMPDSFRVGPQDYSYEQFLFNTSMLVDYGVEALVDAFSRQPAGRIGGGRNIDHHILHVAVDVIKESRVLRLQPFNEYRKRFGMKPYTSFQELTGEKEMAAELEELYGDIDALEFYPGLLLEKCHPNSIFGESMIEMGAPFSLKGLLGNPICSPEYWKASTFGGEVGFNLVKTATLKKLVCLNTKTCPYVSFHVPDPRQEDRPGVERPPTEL
Description: (§2) Inhibitory potency of the compounds against COX-1 and COX-2 enzymes was determined using fluorometric COX-1 and COX-2 inhibitor screening kits (Biovision, Zurich, Switzerland). Experimental protocol was followed as described in the guides of the supplier[47]^,[48]. All of the pipettings in the assay were performed by Biotek Precision robotic system (BioTek Instruments, Inc., Winooski, VT). […] Appropriate two points (T1 and T2) in the linear range of the plot were chosen, and the corresponding fluorescence values (RFU1 and RFU2) were obtained. The slope for all samples, including enzyme control (EC), by dividing the net ΔRFU (RFU2–RFU1) values by the time ΔT (T2–T1) were calculated by using following equation: % Relative inhibition=(Slope of EC-Slope of S/Slope of EC)×100
(§3) This initial in vitro assay was done with two concentrations (10^−3 and 10^−4 M) for all compounds. […] The IC50 value was calculated from the plots of enzyme activity against concentrations by applying regression analyses on GraphPad Prism Version 5 (GraphPad Software, La Jolla, CA).
(§4) Selectivity indexes (SI) were expressed as IC50 (COX-1)/IC50 (COX-2). Selectivity toward COX-2 decreases as the corresponding SI decreases while selectivity toward COX-1 isoform increases as the corresponding SI decreases.

COX-2 = target: T2, COX-2 (Homo sapiens, UniProt P35354); assay: fluorometric COX-2 inhibitor screening kit assay; format: biochemical; conditions: 25 °C
T2 construct: purchased Biovision K547-100
T2 sequence (P35354 18-604): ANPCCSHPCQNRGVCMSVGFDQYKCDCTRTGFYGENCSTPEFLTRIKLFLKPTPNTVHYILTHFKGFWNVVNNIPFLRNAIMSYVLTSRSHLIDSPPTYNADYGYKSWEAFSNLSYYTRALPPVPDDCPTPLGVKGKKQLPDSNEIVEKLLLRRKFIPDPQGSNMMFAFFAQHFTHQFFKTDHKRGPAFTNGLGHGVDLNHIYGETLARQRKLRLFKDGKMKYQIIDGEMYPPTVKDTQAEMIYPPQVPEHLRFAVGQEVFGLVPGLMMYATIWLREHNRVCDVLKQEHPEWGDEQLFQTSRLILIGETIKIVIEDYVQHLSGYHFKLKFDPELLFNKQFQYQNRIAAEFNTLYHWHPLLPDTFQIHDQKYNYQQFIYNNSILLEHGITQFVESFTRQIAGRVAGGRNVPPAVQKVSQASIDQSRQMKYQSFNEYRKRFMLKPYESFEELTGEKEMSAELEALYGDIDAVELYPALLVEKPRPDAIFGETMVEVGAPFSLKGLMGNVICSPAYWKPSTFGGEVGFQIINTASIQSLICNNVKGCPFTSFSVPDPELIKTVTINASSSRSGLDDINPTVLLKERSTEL
Description: as §2, §3, §4

[7] = system: Candida parapsilosis (ATCC 22019); assay: broth dilution MIC (EUCAST EDef 7.1), resazurin; format: cell-based; conditions: ATCC22019, 24 h
Description: as §1

[8] = system: Candida albicans (ATCC 24433); assay: broth dilution MIC (EUCAST EDef 7.1), resazurin; format: cell-based; conditions: ATCC24433, 24 h
Description: as §1

[9] = system: Candida krusei (ATCC 6258); assay: broth dilution MIC (EUCAST EDef 7.1), resazurin; format: cell-based; conditions: Pichia kudriavzevii, ATCC6258, 24 h
Description: as §1

MIC [1] [µg/mL] | MIC [2] [µg/mL] | MIC Ec-1 ([3]; 24 h) [µg/mL] | MIC [3] [µg/mL] | MIC Kp [4] [µg/mL] | MIC [5] [µg/mL] | MIC [6] [µg/mL] | SI (selectivity index) (COX-1) | IC50 (COX-1) [µM] | Selectivity (COX-1) | IC50 (COX-2) [µM] | MIC [7] [µg/mL] | MIC [8] [µg/mL] | MIC [9] [µg/mL] | melting point [°C] | Structure (SMILES)
6.25 (≈ 19.3 µM) | 6.25 (≈ 19.3 µM) | 6.25 (≈ 19.3 µM) | 6.25 (≈ 19.3 µM) | 12.5 (≈ 38.7 µM) | 6.25 (≈ 19.3 µM) | 12.5 (≈ 38.7 µM) | – | – | – | – | – | – | – | – | O=C(N[C@H](CO)[C@H](O)c1ccc([N+](=O)[O-])cc1)C(Cl)Cl [Chloramphenicol, reference compound]
50 (≈ 304 µM) | 50 (≈ 304 µM) | – | 25 (≈ 152 µM) | 50 (≈ 304 µM) | 50 (≈ 304 µM) | 50 (≈ 304 µM) | 0.59 | 38.2 | COX-1 | 64.3 | 50 (≈ 304 µM) | 100 (≈ 609 µM) | 50 (≈ 304 µM) | – | Cc1ccc(C(C)C(=O)O)cc1 (stereo not drawn) [Compound 4, 2-(4-methylphenyl) propionic acid]
12.5 (≈ 44.4 µM) | 12.5 (≈ 44.4 µM) | – | 6.25 (≈ 22.2 µM) | 6.25 (≈ 22.2 µM) | 12.5 (≈ 44.4 µM) | 12.5 (≈ 44.4 µM) | 0.59 | 22.2 | COX-1 | 37.8 | 100 (≈ 355 µM) | 100 (≈ 355 µM) | 100 (≈ 355 µM) | 154.2 to 156.3 | CC(C(=O)O)c1ccc(CSC2=NCCS2)cc1 (stereo not drawn) [Compound 6a, 2-(4-(((4,5-Dihydrothiazol-2-yl)thio)methyl)phenyl)propanoic acid]
12.5 (≈ 45.2 µM) | 12.5 (≈ 45.2 µM) | – | 6.25 (≈ 22.6 µM) | 6.25 (≈ 22.6 µM) | 12.5 (≈ 45.2 µM) | 12.5 (≈ 45.2 µM) | 0.60 | 28.6 | COX-1 | 47.4 | 50 (≈ 181 µM) | 100 (≈ 362 µM) | 100 (≈ 362 µM) | – | CC(C(=O)O)c1ccc(CSc2nccn2C)cc1 (stereo not drawn) [Compound 6b, 2-(4-(((1-Methyl-1H-imidazol-2-yl)thio)methyl)phenyl)propanoic acid]
12.5 (≈ 47.5 µM) | 12.5 (≈ 47.5 µM) | – | 6.25 (≈ 23.7 µM) | 12.5 (≈ 47.5 µM) | 12.5 (≈ 47.5 µM) | 12.5 (≈ 47.5 µM) | 0.53 | 19.5 | COX-1 | 36.7 | 50 (≈ 190 µM) | 100 (≈ 380 µM) | 50 (≈ 190 µM) | – | CC(C(=O)O)c1ccc(CSc2nc[nH]n2)cc1 (stereo not drawn) [Compound 6c, 2-(4-(((1H-1,2,4-Triazol-3-yl)thio)methyl)phenyl)propanoic acid]
12.5 (≈ 45.1 µM) | 12.5 (≈ 45.1 µM) | – | 6.25 (≈ 22.5 µM) | 6.25 (≈ 22.5 µM) | 6.25 (≈ 22.5 µM) | 12.5 (≈ 45.1 µM) | 0.62 | 24.6 | COX-1 | 39.9 | 50 (≈ 180 µM) | 50 (≈ 180 µM) | 50 (≈ 180 µM) | – | CC(C(=O)O)c1ccc(CSc2nncn2C)cc1 (stereo not drawn) [Compound 6d, 2-(4-(((4-Methyl-4 H-1,2,4-triazol-3-yl)thio)methyl)phenyl)propanoic acid]
12.5 (≈ 44.9 µM) | 12.5 (≈ 44.9 µM) | – | 6.25 (≈ 22.5 µM) | 6.25 (≈ 22.5 µM) | 12.5 (≈ 44.9 µM) | 12.5 (≈ 44.9 µM) | 0.60 | 21.8 | COX-1 | 36.3 | 50 (≈ 180 µM) | 50 (≈ 180 µM) | 50 (≈ 180 µM) | – | CC(C(=O)O)c1ccc(CSc2nnnn2C)cc1 (stereo not drawn) [Compound 6e, 2-(4-(((1-Methyl-1 H-tetrazol-5-yl)thio)methyl)phenyl)propanoic acid]
12.5 (≈ 37.9 µM) | 12.5 (≈ 37.9 µM) | – | 6.25 (≈ 19 µM) | 12.5 (≈ 37.9 µM) | 12.5 (≈ 37.9 µM) | 12.5 (≈ 37.9 µM) | 0.54 | 2.36 | COX-1 | 4.41 | 50 (≈ 152 µM) | 100 (≈ 304 µM) | 100 (≈ 304 µM) | 128.2 to 130.8 | CC(C(=O)O)c1ccc(CSc2nc3ccccc3s2)cc1 (stereo not drawn) [Compound 6f, 2-(4-((Benzo[d]thiazol-2-ylthio)methyl)phenyl)propanoic acid]
12.5 (≈ 34.4 µM) | 12.5 (≈ 34.4 µM) | – | 6.25 (≈ 17.2 µM) | 12.5 (≈ 34.4 µM) | 12.5 (≈ 34.4 µM) | 12.5 (≈ 34.4 µM) | 0.58 | 2.46 | COX-1 | 4.25 | 50 (≈ 137 µM) | 100 (≈ 275 µM) | 100 (≈ 275 µM) | 162.3 to 164.7 | CC(C(=O)O)c1ccc(CSc2nc3cc(Cl)ccc3s2)cc1 (stereo not drawn) [Compound 6g, 2-(4-(((5-Chlorobenzo[d]thiazol-2-yl)thio)methyl)phenyl)propanoic acid]
– | – | – | – | – | – | – | – | – | – | – | 0.78 (≈ 1.47 µM) | 0.78 (≈ 1.47 µM) | 0.78 (≈ 1.47 µM) | – | CC(=O)N1CCN(c2ccc(OCC3COC(Cn4ccnc4)(c4ccc(Cl)cc4Cl)O3)cc2)CC1 (stereo not drawn) [Ketoconazole, reference compound]
